Measurements published in publication PMC10053857, “Analysis of NSAIDs in Rat Plasma Using 3D-Printed Sorbents by LC-MS/MS: An Approach to Pre-Clinical Pharmacokinetic Studies” (Pharmaceutics, 2023).

Key:
[1] = Stability of analytes in rat plasma (bench-top, autosampler/post-operative, freeze-thaw); format: in vitro ADME; conditions: for Mean Estimated Concentration ± SD, autosampler stability: 15 °C for 24 h; for Mean Estimated Concentration ± SD, bench-top stability: 8 h at ambient temperature; for Mean Estimated Concentration ± SD, three freeze-thaw cycles: each cycle at −20 °C; for mean percentage changes in plasma during bench-top stability, post-operative, and three freeze-thaw cycles: low and high QC
Method: To assess the specificity and selectivity of the validated LC-MS/MS method and to determine the exclusion of endogenous interferences at the retention time of the compound and I.S., a total of six plasma samples and two plasma samples containing 50 ng/mL I.S. solution were subjected to extraction using the 3D sorbent. A calibration curve for rat plasma was constructed for standards over a range of 1–800 ng/mL for acetaminophen and 1–500 ng/mL for indomethacin. The peak area ratio of the drug and I.S. was plotted with a weighing factor of 1/X to assess acetaminophen linearity and linear regression for indomethacin. The minimum detectable concentration of analytes, also known as the lower limit of quantification (LLOQ), was established as the concentration at which the coefficient of variation (CV) is less than 20%, and the accuracy is within the range of 80–120%. Four different concentrations of quality control samples were used for six replicates to determine the intra- and inter-day precision and accuracy. As per the FDA guidelines, CV was limited to <20% for the LLOQ and ≤15% for the LQC, MQC, and HQC. Accuracy was calculated as the percentage difference between the observed and nominal concentrations of the QC samples. A comparison of the peak area ratios of analytes to I.S. of extracted samples (n = 6) and drug solutions of the same concentration was performed to evaluate the extraction recovery of molecules from rat plasma. LQC, MQC, and HQC concentrations were investigated for extraction recovery. The matrix effect of the LQC, MQC, and HQC samples was determined by deproteinizing the blank plasma samples and adding analytes and I.S. to the deproteinized sample. Furthermore, the same analyte concentrations were analyzed in aqueous solutions. The matrix factor was calculated using the following equation: (peak area of post-extracted standard analytes/peak area of the analyte in aqueous solution) × 100. To test the dilution integrity, the range of the standard compound concentrations was increased beyond the calibration range. Plasma samples with 1200 ng/mL of acetaminophen and indomethacin were individually prepared and then diluted two-fold and four-fold using blank plasma. The dilution integrity of concentrations was evaluated with %CV <15%. A series of injections was performed to assess the carry-over effect of acetaminophen and indomethacin. The injections included a blank solvent sample, a higher concentration standard sample, a blank plasma sample extracted with the 3D sorbent, and a higher concentration sample extracted with 3D sorbent from plasma. The thresholds for carry-over effects were 20% of the mean extracted LLOQ signal and 5% of the I.S. response. The stability of acetaminophen and indomethacin in rat plasma was evaluated at six low- and high-quality control sample replicates. Benchtop and post-operative stability studies were conducted at 8 h at ambient temperature and 15 °C for 24 h, respectively. Quality control samples were stored at −20 °C and thawed at room temperature every 24 h for freeze-thaw stability, and after three freeze-thaw cycles, samples were analyzed.

in vivo = test: in vivo; set-up: species or system male Sprague-Dawley rats; conditions: male, Sprague-Dawley, rat, po
Method: A 3D sorbent was used as the extraction device to evaluate the in vivo pharmacokinetics of acetaminophen and indomethacin. The Institutional Animal Ethics Committee of the National Institute of Pharmaceutical Education and Research, Guwahati (NIPER/CAF/IAEC/2022/60) approved all the animal experiments. For the pharmacokinetic study, the animal house was kept at a temperature of 25 ± 1 °C with a relative humidity of 50 ± 15%. The rats were maintained on a 12-h dark/light cycle and had free access to food and water. Prior to the study, the animals fasted for 12 h. To minimize variations in drug concentration in the plasma, 18 male Sprague-Dawley rats of similar weight and age were used. Rats were administered 50 mg/kg acetaminophen and 10 mg/kg indomethacin in saline through oral gavage to a different group. Blood samples were collected and thoroughly vortexed at 0.25, 0.50, 1, 2, 4, 6, and 8 h before being centrifuged at 5000 rpm for 20 min at 4 °C. The resulting plasma samples were separated and subjected to analysis using LC-MS/MS. The 3D extraction prototype was used to extract analytes from the plasma by introducing 90 µL of plasma spiked with 10 µL of an internal standard (I.S., 50 ng/mL), making up to 1 mL with deionized water, and adding the 3D extraction device for the adsorption process. After 15 min of adsorption in the vortexes, the remaining residue was collected for further analysis, the prototype was transferred into a fresh microcentrifuge tube, and desorption solvents (water and acetonitrile) were added in a 1:1 (v/v) ratio and vortexed for 15 min. Samples were collected after successful desorption and analyzed using LC-MS/MS.
Male Sprague-Dawley rats (n = 6) were used for pharmacokinetic studies, and oral doses of indomethacin and acetaminophen were separately administered to overnight-fasted rats. Blood was collected through retro-orbital puncture at different time points, and plasma was separated and stored for further analysis. Plasma containing indomethacin and acetaminophen was added to the microcentrifuge tube containing the activated extraction device for adsorption and vortexed for 15 min with 1 mL of water, after which the analytes present in the plasma were bound to the surface of the cartridge. After adsorption for 15 min, the remaining solvent was transferred into a fresh tube and centrifuged to precipitate the matrix. The resulting supernatant was collected and introduced into an LC-MS/MS system to quantify the unbound concentration. The sorbent was transferred into a fresh microcentrifuge tube for desorption using acetonitrile and water and vortexed for 15 min to complete the process. The solution was collected, followed by centrifugation, and the supernatant was filtered through a 0.2µm filter. The resulting filtrate was then subjected to LC-MS/MS analysis to measure the indomethacin and acetaminophen concentration in the plasma.
An investigation into the pharmacokinetics of indomethacin and acetaminophen in rats was conducted through oral administration, employing LC-ESI-MS/MS analysis. Figure 9 illustrates the resulting pharmacokinetic profile, while Table 4 presents the computed pharmacokinetic parameters of both substances, obtained via PK Analysis Add-ins in the Microsoft Excel Program. […] The mean area under the curve (AUC0–t) for indomethacin is 0.93 µg h/mL and for acetaminophen is 32.33 µg h/mL. […] Based on the obtained results, the developed 3D-printed sorbent efficiently extracted analytes from plasma, reduced sample preparation time, and minimized the use of organic solvents during sample preparation.

[2] = indomethacin, HQC, theoretical 400 ng/mL
[3] = indomethacin, LQC, theoretical 3 ng/mL
[4] = acetaminophen, HQC, theoretical 600 ng/mL
[5] = acetaminophen, LQC, theoretical 3 ng/mL

SMILES: COc1ccc2c(c1)c(CC(=O)O)c(C)n2C(=O)c1ccc(Cl)cc1 [Indomethacin]
- Mean Estimated Concentration ± SD, autosampler stability [1, 2]: 391.82 ± 6.72 ng/mL
- Mean Estimated Concentration ± SD, bench-top stability [1, 2]: 401.61 ± 7.80 ng/mL
- Mean Estimated Concentration ± SD, three freeze-thaw cycles [1, 2]: 395.72 ± 13.06 ng/mL
- Mean Estimated Concentration ± SD, autosampler stability [1, 3]: 2.99 ± 0.04 ng/mL
- Mean Estimated Concentration ± SD, bench-top stability [1, 3]: 2.98 ± 0.11 ng/mL
- Mean Estimated Concentration ± SD, three freeze-thaw cycles [1, 3]: 2.96 ± 0.12 ng/mL
- mean percentage changes in plasma during bench-top stability, post-operative, and three freeze-thaw cycles [1]: within acceptable limits
- AUC (in vivo; 10 mg/kg): 970 ± 200 ng·h/mL
- AUC(0-t) (in vivo; 10 mg/kg): 930 ± 170 ng·h/mL
- Cmax (in vivo; 10 mg/kg): 330 ± 40 ng/mL
- Tmax (in vivo; 10 mg/kg): 30 to 60 min
- half-life (in vivo; 10 mg/kg): 107 ± 26.4 min
- k el (in vivo; 10 mg/kg): 0.000114 s⁻¹

SMILES: CC(=O)Nc1ccc(O)cc1 [Acetaminophen]
- Mean Estimated Concentration ± SD, autosampler stability [1, 4]: 596.26 ± 8.41 ng/mL
- Mean Estimated Concentration ± SD, bench-top stability [1, 4]: 592.92 ± 10.80 ng/mL
- Mean Estimated Concentration ± SD, three freeze-thaw cycles [1, 4]: 591.92 ± 6.66 ng/mL
- Mean Estimated Concentration ± SD, autosampler stability [1, 5]: 2.92 ± 0.15 ng/mL
- Mean Estimated Concentration ± SD, bench-top stability [1, 5]: 2.91 ± 0.16 ng/mL
- Mean Estimated Concentration ± SD, three freeze-thaw cycles [1, 5]: 3.01 ± 0.09 ng/mL
- mean percentage changes in plasma during bench-top stability, post-operative, and three freeze-thaw cycles [1]: within acceptable limits
- AUC (in vivo; 50 mg/kg): 32400 ± 10800 ng·h/mL
- AUC(0-t) (in vivo; 50 mg/kg): 32300 ± 10800 ng·h/mL
- Cmax (in vivo; 50 mg/kg): 27300 ± 9900 ng/mL
- Tmax (in vivo; 50 mg/kg): 30 to 60 min
- half-life (in vivo; 50 mg/kg): 48.6 ± 6 min
- k el (in vivo; 50 mg/kg): 0.000236 s⁻¹
